The subject of assay [1] is retinal neovascularization (视网膜新生血管). Kind of assay: Oxygen-induced retinopathy (OIR) mouse model; retinal flat mount with FITC-conjugated isolectin-B4, fluorescence microscopy of retinal neovascularization at P17. The format is in vivo.
Assay [2] concerns VEGF-A. Kind of assay: Western blot of VEGF-A protein in retina of OIR mice (PBS control group and FUT-175 treated group). The format is in vivo, mouse. The note with it: retina total protein.

Results on one compound are retold here after patent CN102743371A, “一种治疗视网膜新生血管性疾病的药物” (SPECIALTY OF OPHTHALMOLOGY RESEARCH INSTITUTE SHANDONG PROV, priority 2012, dated 2012).

With `N=C(N)c1ccc2cc(OC(=O)c3ccc(N=C(N)N)cc3)ccc2c1` [甲磺酸萘莫司他], in assay [1] (C3aR-/- and C5aR-/- mice, same OIR treatment), the “change in retinal neovascularization growth after injection” value was “变化并不明显”. In assay [1] (C57BL/6J mice, OIR (75% oxygen from P7 for 5 d), 50 mg/kg i.p. daily from P12, evaluated at P17), the fundus vessel growth result was “血管生长趋于正常”. The “inhibition of RNV growth” value in assay [1] (C57BL/6J mice, OIR (75% oxygen from P7 for 5 d), 50 mg/kg i.p. daily from P12, evaluated at P17, fluorescence microscopy) was “能够明显抑制RNV的生长”. The VEGF-A expression change result in assay [2] (C3aR and C5aR knockout) was “无检测到VEGF-A的表达变化”. Besides, the VEGF-A protein expression result in assay [2] (C57BL/6J) was “可调节VEGF-A的蛋白表达”.
